The values below are quoted from earlier work in patent US8470822B2, “Folate mimetics and folate-receptor binding conjugates thereof” (Purdue Research Foundation, priority 2001, dated 2013).

The data set concerns high-affinity folate receptor. The conditions noted are these: 2 μM pteroic acid (100-fold excess); cited from earlier work.

Consider `Nc1nc2ncc(CNc3ccc(C(=O)O)cc3)nc2c(=O)[nH]1` [pteroic acid], for which the “effect on the binding of folate to the folate receptor” value is “absolutely no effect”.
